Experimental data: PMC3463587, “A Series of Beta-Carboline Derivatives Inhibit the Kinase Activity of PLKs” (PLoS ONE, 2012)

What was measured:
[1] = system: cdc5-2 mutant yeast cells; test: Yeast growth inhibition (MIC), cdc5-2 mutant; conditions: 10 µg/ml, 25°C
Description: (§2) The Cdc5 kinase is the functional homologue of PLK1 in budding yeast and the incubation of cdc5-2 mutants at 37°C impairs the kinase activity and stops cell growth. […] We also compared the sensitivity of wild-type and cdc5-2 mutant cells to the selected compounds at different concentrations. […] The temperature sensitive cdc5-2 mutants and wild-type strains were used. […] After incubation at 25°C for 24 hr, the growth of the yeast cells was determined by measuring OD600.

wild-type yeast cells = test: Yeast growth inhibition (MIC), wild-type; conditions: 10 µg/ml, 25°C
Description: as §2

[2] = system: four cancer cell lines (HepG2, MG63, HeLa and PC3); test: Growth inhibition of four cancer cell lines; type: cell-based, Human
Description: In order to find more efficient antitumor small molecules targeting PLK1, we synthesized additional 18 beta-carboline compounds and the structures of these compounds are shown in Figure 1. The growth inhibition of four cancer cell lines (HepG2, MG63, HeLa and PC3) by these compounds was examined. […] We selected DH281, DH285 and DH287 for further studies.

MG63 cells = test: MTT cell proliferation assay, MG63; type: cell-based; conditions: Homo sapiens, MG-63, 48 hr
Description: (§1) BI2536 was purchased from Selleck (Selleck, USA).

HeLa cells = test: MTT cell proliferation assay, HeLa; type: cell-based; conditions: Homo sapiens, 48 hr
Description: as §1

PC3 cells = test: MTT cell proliferation assay, PC3; type: cell-based; conditions: Homo sapiens, PC-3, 48 hr
Description: as §1

HepG2 cells = test: MTT cell proliferation assay, HepG2; type: cell-based; conditions: Homo sapiens, 48 hr
Description: as §1

Row | Compound | IC50 (HeLa cells) [µM] | IC50 (PC3 cells) [µM] | IC50 (HepG2 cells) [µM] | growth inhibition of cdc5-2 mutant cells [1] | growth of wild-type cells (wild-type yeast cells) | antitumor activity (growth inhibition) [2] | IC50 (MG63 cells) [µM]
1 | CC[C@@H]1C(=O)N(C)c2cnc(Nc3ccc(C(=O)NC4CCN(C)CC4)cc3OC)nc2N1C1CCCC1 [BI2536, reference compound] | – | – | – | complete growth inhibition | unaffected | – | –
2 | COc1ccc2c3ccnc(C)c3n(Cc3cccc(Cl)c3)c2c1 [DH145] | 40.5 ± 0.14 | 75.39 ± 0.16 | 68.45 ± 0.02 | – | – | did not show obvious antitumor activity | 73.12 ± 0.31
3 | Fc1ccc(Cn2c3ccccc3c3cc[n+](Cc4ccccc4)c(Cc4ccccc4)c32)cc1 [DH271] | 3.86 ± 0.44 | 8.38 ± 0.24 | 4.01 ± 0.1 | – | – | – | 5.97 ± 0.06
4 | c1ccc(CCCn2c3ccccc3c3cc[n+](Cc4ccccc4)cc32)cc1 [DH272] | 8.16 ± 0.37 | 22.1 ± 0.43 | 12.47 ± 0.12 | – | – | – | 12.8 ± 0.28
5 | Fc1ccc(C[n+]2ccc3c4ccccc4n(Cc4cccc(Cl)c4)c3c2)cc1 [DH275] | 5.83 ± 0.03 | 6.36 ± 0.11 | 10.4 ± 0.37 | – | – | – | 7.32 ± 0.22
6 | Clc1cccc(Cn2c3ccccc3c3cc[n+](Cc4ccccc4)cc32)c1 [DH277] | 8.48 ± 0.23 | 10.8 ± 0.21 | 18.8 ± 0.29 | – | – | – | 20.4 ± 0.16
7 | Cc1c2c(cc[n+]1Cc1ccccc1)c1ccc(OCc3cccc(Cl)c3)cc1n2CCCc1ccccc1 [DH280] | 0.99 ± 0.14 | 2.34 ± 0.06 | 2.59 ± 0.16 | – | – | very strong growth inhibition | 1.86 ± 0.33
8 | CCCCn1c2ccccc2c2cc(C(=O)NCCO)nc(C)c21 [DH286] | 65.81 ± 0.23 | 72.96 ± 0.53 | > 150 | – | – | did not show obvious antitumor activity | 46.09 ± 0.37
9 | Cc1nccc2c3ccc(OCc4ccccc4)cc3n(Cc3ccccc3)c12 [DH288] | > 100 | > 100 | > 100 | – | – | did not show obvious antitumor activity | > 100

Continued, in another order:

Row | IC50 (HeLa cells) [µM] | IC50 (PC3 cells) [µM] | IC50 (HepG2 cells) [µM] | Compound | growth inhibition of cdc5-2 mutant cells [1] | growth of wild-type cells (wild-type yeast cells) | antitumor activity (growth inhibition) [2] | IC50 (MG63 cells) [µM]
10 | 3.77 ± 0.25 | 3.86 ± 0.12 | 5.08 ± 0.38 | Clc1cccc(C[n+]2ccc3c4ccccc4n(CCCc4ccccc4)c3c2)c1 [DH273] | – | – | – | 4.21 ± 0.45
11 | 5.73 ± 0.18 | 6.07 ± 0.27 | 7.37 ± 0.26 | Fc1ccc(C[n+]2ccc3c4ccccc4n(CCCc4ccccc4)c3c2)cc1 [DH274] | – | – | – | 6.38 ± 0.19
12 | 6.04 ± 0.17 | 6.65 ± 0.4 | 11.2 ± 0.22 | Clc1cccc(Cn2c3ccccc3c3cc[n+](Cc4cccc(Cl)c4)cc32)c1 [DH276] | – | – | – | 7.3 ± 0.06
13 | 63.14 ± 0.47 | 80.21 ± 0.31 | > 100 | Cc1nccc2c3ccc(OCc4cccc(Cl)c4)cc3n(CCCc3ccccc3)c12 [DH278] | – | – | did not show obvious antitumor activity | > 150
14 | > 100 | > 100 | > 100 | Cc1nccc2c3ccc(OCc4ccc(F)cc4)cc3n(CCCc3ccccc3)c12 [DH279] | – | – | did not show obvious antitumor activity | > 100
